Values quoted from earlier work as cited in patent US20090312281A1, “PROCESS FOR THE PREPARATION OF A PULVERULENT COMPOSITION AND PRODUCT AS OBTAINED” (INNOV'IA, priority 2006, published 2009).

Row | SMILES | Solubility in water at 60° C. (% weight/weight)
1 | OC[C@H]1O[C@@](CO)(O[C@H]2O[C@H](CO)[C@@H](O)[C@H](O)[C@H]2O)[C@@H](O)[C@@H]1O [Sucrose] | 71
2 | O=C(CO)[C@@H](O)[C@H](O)[C@H](O)CO [Fructose] | 89
